Data published in patent US6737383B1, “Herbicidal oxadiazolidines” (priority 1999, dated 2004).

Assays:
rape = assay: Test B pre/postemergence rape; type: in vivo, Brassica napus
How it was run: (§1)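 Response is a visual 0-to-10 score relative to untreated plants, where 0 means no effect and 10 means complete control, taken twelve to sixteen days after application. Treatments went onto soil at planting and onto foliage of 1- to 4-leaf plants, using a surfactant-containing non-phytotoxic solvent.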

cocklebur = assay: Test B pre/postemergence cocklebur; type: in vivo, Xanthium strumarium
How it was run: as §1

pigweed = assay: Test B pre/postemergence pigweed; type: in vivo, Amaranthus retroflexus
How it was run: as §1

wheat = assay: Test B pre/postemergence wheat; type: in vivo, Triticum aestivum
How it was run: as §1

rice = assay: Test B flood test rice; type: in vivo, Oryza sativa
How it was run: (§2)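 Each value is a visual injury score relative to controls, with 10 meaning complete control and 0 no effect. Evaluation took place twelve to sixteen days after the 2-leaf-stage plants were treated and kept in the greenhouse.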

crabgrass = assay: Test B pre/postemergence crabgrass; type: in vivo, Digitaria sanguinalis
How it was run: as §1

duck salad = assay: Test B flood test duck salad; type: in vivo, Heteranthera limosa
How it was run: as §2

morningglory = assay: Test B pre/postemergence morningglory; type: in vivo, Ipomoea hederacea
How it was run: as §1

giant foxtail = assay: Test B pre/postemergence giant foxtail; type: in vivo, Setaria faberii
How it was run: as §1

purple nutsedge = assay: Test B pre/postemergence purple nutsedge; type: in vivo, Cyperus rotundus
How it was run: as §1

velvetleaf = assay: Test B pre/postemergence velvetleaf; type: in vivo, Abutilon theophrasti
How it was run: as §1

soybean = assay: Test B pre/postemergence soybean; type: in vivo, Glycine max
How it was run: as §1

wild oat = assay: Test B pre/postemergence wild oat; type: in vivo, Avena fatua
How it was run: as §1

corn = assay: Test B pre/postemergence corn; type: in vivo, Zea mays
How it was run: as §1

bamyardgrass = assay: Test B flood test barnyardgrass; type: in vivo, Echinochloa crus-galli
How it was run: as §2

sugar beet = assay: Test B pre/postemergence sugar beet; type: in vivo, Beta vulgaris
How it was run: as §1

[1] = Postemergence, Rate 125 g/ha, scale of 0 to 10 where 0 is no effect and 10 is complete control
[2] = Preemergence, Rate 62 g/ha, scale 0 to 10 (0 no effect, 10 complete control)
[3] = Preemergence, Rate 125 g/ha, 0 is no effect, 10 is complete control
[4] = Preemergence, Rate 250 g/ha, scale 0 to 10, 0 is no effect, 10 is complete control
[5] = Preemergence, Rate 500 g/ha, scale 0 to 10 (0 no effect, 10 complete control)
[6] = Rate 62 g/ha, Postemergence, scale of 0 to 10 where 0 is no effect and 10 is complete control
[7] = Rate 250 g/ha, Postemergence, scale 0 to 10, 0 is no effect, 10 is complete control
[8] = Rate 500 g/ha, Postemergence, scale 0 to 10
[9] = Postemergence (flood test species), Rate 125 g/ha, scale of 0 to 10 where 0 is no effect and 10 is complete control
[10] = Rate 250 g/ha, Postemergence (flood test), scale 0 to 10, 0 is no effect, 10 is complete control
[11] = Rate 500 g/ha, listed under Postemergence (flood test species), scale 0 to 10

## CCOC(=O)Cn1c(=O)on(C(=O)N(c2ccc(F)cc2)C(C)C)c1=O [Compound 128]
rape; [1]
  Rape plant response rating: 0
rape; [2]
  Rape plant response rating: 0
rape; [3]
  Rape plant response rating (0 to 10 scale): 0
rape; [4]
  Rape plant response rating: 0
rape; [5]
  Rape plant response rating: 0
rape; [6]
  Rape plant response rating: 0
rape; [7]
  Plant response rating, Rape: 0
rape; [8]
  Rape plant response rating: 0
cocklebur; [1]
  Cocklebur plant response rating: 0
cocklebur; [2]
  Cocklebur plant response rating: 0
cocklebur; [3]
  Cocklebur plant response rating (0 to 10 scale): 0
cocklebur; [4]
  Cocklebur plant response rating: 0
cocklebur; [5]
  Cocklebur plant response rating: 0
cocklebur; [6]
  Cocklebur plant response rating: 0
cocklebur; [7]
  Plant response rating, Cocklebur: 0
cocklebur; [8]
  Cocklebur plant response rating: 0
pigweed; [1]
  Redroot pigweed plant response rating: 0
pigweed; [2]
  Redroot pigweed plant response rating: 0
pigweed; [3]
  Redroot pigweed plant response rating (0 to 10 scale): 0
pigweed; [4]
  Redroot pigweed plant response rating: 0
pigweed; [5]
  Redroot pigweed plant response rating: 0
pigweed; [6]
  Redroot pigweed plant response rating: 0
pigweed; [7]
  Plant response rating, Redroot pigweed: 0
pigweed; [8]
  Redroot pigweed plant response rating: 0
wheat; [1]
  Wheat plant response rating: 0
wheat; [2]
  Wheat plant response rating: 0
wheat; [3]
  Wheat plant response rating (0 to 10 scale): 0
wheat; [4]
  Wheat plant response rating: 0
wheat; [5]
  Wheat plant response rating: 0
wheat; [6]
  Wheat plant response rating: 0
wheat; [7]
  Plant response rating, Wheat: 0
wheat; [8]
  Wheat plant response rating: 0
rice; [9]
  Rice plant response rating: 0
rice; [10]
  Plant response rating, Rice: 0
rice; [11]
  Rice plant response rating: 0
crabgrass; [1]
  Crabgrass plant response rating: 0
crabgrass; [2]
  Crabgrass plant response rating: 0
crabgrass; [3]
  Crabgrass plant response rating (0 to 10 scale): 0
crabgrass; [4]
  Crabgrass plant response rating: 0
crabgrass; [5]
  Crabgrass plant response rating: 0
crabgrass; [6]
  Crabgrass plant response rating: 0
crabgrass; [7]
  Plant response rating, Crabgrass: 0
crabgrass; [8]
  Crabgrass plant response rating: 0
Duck salad; [9]
  Ducksalad plant response rating: 0
Duck salad; [10]
  Plant response rating, Ducksalad: 0
Duck salad; [11]
  Ducksalad plant response rating: 0
morningglory; [1]
  Morningglory plant response rating: 0
morningglory; [2]
  Morningglory plant response rating: 0
morningglory; [3]
  Morningglory plant response rating (0 to 10 scale): 0
morningglory; [4]
  Morningglory plant response rating: 0
morningglory; [5]
  Morningglory plant response rating: 0
morningglory; [6]
  Morningglory plant response rating: 0
morningglory; [7]
  Plant response rating, Morningglory: 0
morningglory; [8]
  Morningglory plant response rating: 0
Giant foxtail; [1]
  Giant foxtail plant response rating: 0
Giant foxtail; [2]
  Giant foxtail plant response rating: 0
Giant foxtail; [3]
  Giant foxtail plant response rating (0 to 10 scale): 0
Giant foxtail; [4]
  Giant foxtail plant response rating: 0
Giant foxtail; [5]
  Giant foxtail plant response rating: 8
Giant foxtail; [6]
  Giant foxtail plant response rating: 0
Giant foxtail; [7]
  Plant response rating, Giant foxtail: 0
Giant foxtail; [8]
  Giant foxtail plant response rating: 0
Purple nutsedge; [1]
  Nutsedge plant response rating: 0
Purple nutsedge; [2]
  Nutsedge plant response rating: 0
Purple nutsedge; [3]
  Nutsedge plant response rating (0 to 10 scale): 0
Purple nutsedge; [4]
  Nutsedge plant response rating: 0
Purple nutsedge; [5]
  Nutsedge plant response rating: 0
Purple nutsedge; [6]
  Nutsedge plant response rating: 0
Purple nutsedge; [7]
  Plant response rating, Nutsedge: 0
Purple nutsedge; [8]
  Nutsedge plant response rating: 0
velvetleaf; [1]
  Velvetleaf plant response rating: 0
velvetleaf; [2]
  Velvetleaf plant response rating: 0
velvetleaf; [3]
  Velvetleaf plant response rating (0 to 10 scale): 0
velvetleaf; [4]
  Velvetleaf plant response rating: 0
velvetleaf; [5]
  Velvetleaf plant response rating: 0
velvetleaf; [6]
  Velvetleaf plant response rating: 0
velvetleaf; [7]
  Plant response rating, Velvetleaf: 0
velvetleaf; [8]
  Velvetleaf plant response rating: 0
soybean; [1]
  Soybean plant response rating: 0
soybean; [2]
  Soybean plant response rating: 0
soybean; [3]
  Soybean plant response rating (0 to 10 scale): 0
soybean; [4]
  Soybean plant response rating: 0
soybean; [5]
  Soybean plant response rating: 0
soybean; [6]
  Soybean plant response rating: 0
soybean; [7]
  Plant response rating, Soybean: 0
soybean; [8]
  Soybean plant response rating: 0
Wild oat; [1]
  Wild oats plant response rating: 0
Wild oat; [2]
  Wild oats plant response rating: 0
Wild oat; [3]
  Wild oats plant response rating (0 to 10 scale): 0
Wild oat; [4]
  Wild oats plant response rating: 0
Wild oat; [5]
  Wild oats plant response rating: 0
Wild oat; [6]
  Wild oats plant response rating: 0
Wild oat; [7]
  Plant response rating, Wild oats: 0
Wild oat; [8]
  Wild oats plant response rating: 0
corn; [1]
  Corn plant response rating: 0
corn; [2]
  Corn plant response rating: 0
corn; [3]
  Corn plant response rating (0 to 10 scale): 0
corn; [4]
  Corn plant response rating: 0
corn; [5]
  Corn plant response rating: 0
corn; [6]
  Corn plant response rating: 0
corn; [7]
  Plant response rating, Corn: 0
corn; [8]
  Corn plant response rating: 0
bamyardgrass; [9]
  Barnyardgrass plant response rating: 0
bamyardgrass; [10]
  Plant response rating, Barnyardgrass: 0
bamyardgrass; Rate 500 g/ha, listed under Postemergence (flood test species), scale 0 to 10, 0 no effect, 10 complete control
  Barnyardgrass plant response rating: 0
Sugar beet; [1]
  Sugarbeets plant response rating: 0
Sugar beet; [2]
  Sugarbeets plant response rating: 0
Sugar beet; [3]
  Sugarbeets plant response rating (0 to 10 scale): 0
Sugar beet; [4]
  Sugarbeets plant response rating: 0
Sugar beet; [5]
  Sugarbeets plant response rating: 0
Sugar beet; [6]
  Sugarbeets plant response rating: 0
Sugar beet; [7]
  Plant response rating, Sugarbeets: 0
Sugar beet; [8]
  Sugarbeets plant response rating: 0
